PMC10820890, “Potential of Tryptamine Derivatives as Multi-Target Directed Ligands for Alzheimer’s Disease: AChE, MAO-B, and COX-2 as Molecular Targets” (Molecules, 2024)
Where two headings read alike, the source gives them in different places.

How the values were obtained:
AChE from electric eel = AChE from electric eel (Electrophorus electricus, UniProt O42275); test: biochemical; conditions: mean of three independent measurements, read-out: AChE (IC50 ± SD)
Description: The AChE inhibitory potential of the synthesized tryptamine derivatives was investigated using a modified Ellman’s method. In this enzymatic assay, thiocholine, the product of enzymatic hydrolysis, lacks a substantial chromophore for UV detection. Therefore, Ellman’s reagent (DTNB) was employed as the chromogenic chemical. Ellman’s procedure for the in vitro acetylcholinesterase inhibition assay is based on a two-step reaction involving the chemical components DTNB (5,5-dithiobis(2-nitro) benzoic acid), a hydrolyzed substrate (thiocholine), and the enzyme AChE [59]. In the first step, the substrate acetylthiocholine iodide undergoes hydrolysis catalyzed by the AChE enzyme, resulting in the formation of thiocholine and acetic acid. In the second step, TNB (5-thio-2-nitrobenzoic acid) is generated by the reaction between Ellman’s reagent (DTNB) and thiocholine through an electron-shifting process to sulfur. […] Higher enzyme activity is reflected by an increase in absorbance at this wavelength. The formation of TNB is directly associated with the hydrolysis of acetylthiocholine iodide. Each reaction was initiated by taking a 2 mL working solution, which consisted of 150 µL of the sample (either test compounds or positive control), 50 µL of 0.22 units/mL acetylcholinesterase enzyme from electric eel origin (AChE, E.C. 3.1.1.7, in lyophilized powder, ≥1000 unit), and sodium phosphate buffer (0.1 M, pH 7.4), making it up to a total of 2 mL. The working solution was then incubated at room temperature ([…]) for 15 min, after which 1 mL of Ellman’s solution (200 µL of 75 mM ACTI and 500 µL of 10 mM DTNB in 15 mL sodium phosphate buffer) was added. The stock solutions of tryptamine analogs were prepared in dimethyl sulfoxide (DMSO) 100%. […] All chemicals were purchased from Sigma-Aldrich, St. Louis, MO, USA and TCI Tokyo Chemical Industry Co., Ltd., Saitama, Japan. […] A negative control reaction was also performed under the same conditions but without the inclusion of samples. In this assay, the blank consisted of sodium phosphate buffer. Each experiment was conducted in triplicate.
The percentage of acetylcholinesterase inhibition activity for each tested dilution was calculated using the following equation: Percent inhibition activity%=Absorbance of control−Absorbance of test/Absorbanec of control×100
The results were then presented in a tabular format as the mean IC50 ± SD. The IC50 values, which represent the half-maximal inhibitory concentration, were determined by creating a graph that relates different concentrations (µM) to the percent inhibition (%) using the linear regression method provided by GraphPad Prism software 7 [61, 62, 63].

Human recombinant COX-2 = target: T1, Human recombinant COX-2 (Homo sapiens, UniProt P35354); test: In vitro fluorometric COX-2 inhibition assay kit; type: biochemical; conditions: compounds tested at 100 µM, mean of three independent measurements; for inhibition at 100 µM: read-out: COX-2 (%Inhibition ± SD)
T1 construct: purchased BioVision (kit manual cited); the text also says reagents came from Sigma-Aldrich K547
T1 sequence (P35354 18-604): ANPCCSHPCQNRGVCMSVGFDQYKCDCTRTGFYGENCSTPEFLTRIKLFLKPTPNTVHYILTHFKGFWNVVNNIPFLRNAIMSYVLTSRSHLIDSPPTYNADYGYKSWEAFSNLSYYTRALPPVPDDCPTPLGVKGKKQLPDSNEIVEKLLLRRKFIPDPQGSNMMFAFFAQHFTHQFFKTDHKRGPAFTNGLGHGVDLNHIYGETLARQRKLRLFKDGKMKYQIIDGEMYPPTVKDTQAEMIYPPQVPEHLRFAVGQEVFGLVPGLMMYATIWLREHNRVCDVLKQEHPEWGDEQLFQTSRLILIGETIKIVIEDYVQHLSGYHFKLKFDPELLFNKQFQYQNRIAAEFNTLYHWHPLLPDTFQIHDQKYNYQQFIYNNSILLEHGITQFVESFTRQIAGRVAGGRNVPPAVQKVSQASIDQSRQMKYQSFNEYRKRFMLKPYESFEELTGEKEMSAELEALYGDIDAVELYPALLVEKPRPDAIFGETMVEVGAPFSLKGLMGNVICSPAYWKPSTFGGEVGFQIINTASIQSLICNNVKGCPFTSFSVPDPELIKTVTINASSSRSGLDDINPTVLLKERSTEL
Method: The fluorometric COX-2 inhibition assay kit provides a simple, fast, sensitive, and consistent method appropriate for carrying out high-throughput analysis for COX-2 inhibitors. The assay is based on the formation of prostaglandin G2 (PG2), which is an intermediate made from arachidonic acid under the action of the COX-2 enzyme. The reagents were prepared, and testing procedures were executed according to these recommended guidelines. The fluorescence of the samples was measured in an opaque 96-well plate at a temperature of 37 °C, precisely 5 min after the initiation of the experiment, utilizing a microplate reader from Thermo Scientific, USA. All compounds were tested at a concentration of 100 µM in a DMSO-1% solution. […] Dilutions were prepared in sodium phosphate buffer 0.1 M, pH 7.4. All the reagents were purchased from Sigma-Aldrich, St. Louis, MO, USA. The mean fluorescence values were calculated to determine the percentage of inhibition achieved by each compound. […] Each experiment was conducted in triplicate, and the percent inhibition was calculated using the following formula: % Inhibition=fluorescence of control−fluorescence of test compound/fluorescence of control×100

[1] = target: T2, MAO-B extracted from the rat brain (Rattus norvegicus, UniProt P19643); test: MAO-B inhibition, Amplex Red monoamine oxidase assay kit; type: biochemical
T2 construct: Synaptosomes containing the MAO enzyme were isolated from the rat brain; from tissue; host or cells: rat brain synaptosomes (Dawley rats)
T2 sequence (P19643 1-520): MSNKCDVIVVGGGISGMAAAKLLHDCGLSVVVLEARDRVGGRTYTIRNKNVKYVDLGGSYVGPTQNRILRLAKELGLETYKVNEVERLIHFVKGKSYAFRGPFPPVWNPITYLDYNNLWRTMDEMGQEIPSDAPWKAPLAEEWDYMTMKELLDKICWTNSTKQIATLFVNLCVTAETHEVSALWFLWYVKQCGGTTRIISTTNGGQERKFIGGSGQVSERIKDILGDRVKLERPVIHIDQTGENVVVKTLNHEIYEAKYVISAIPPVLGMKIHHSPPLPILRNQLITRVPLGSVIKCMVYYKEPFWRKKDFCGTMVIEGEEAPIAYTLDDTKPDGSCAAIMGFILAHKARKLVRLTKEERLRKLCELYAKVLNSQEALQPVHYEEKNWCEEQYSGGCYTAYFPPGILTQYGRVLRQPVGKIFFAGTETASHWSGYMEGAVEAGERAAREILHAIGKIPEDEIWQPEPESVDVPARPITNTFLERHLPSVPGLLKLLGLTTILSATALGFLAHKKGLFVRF
Description: Synaptosomes containing the MAO enzyme were isolated from the rat brain by the method of Hojas, with some modification. Three Dawley rats of any sex with weight ranging from 200–250 gm were decapitated after administration of an anesthetic agent (mixture of propofol and xylocaine). Immediately, complete brains were removed from the bed of ice on a petri dish, and the brains were washed with ice-chilled PBS (phosphate-buffered saline) of pH 7.0, 0.1M and normal saline. Then, each brain, weighing approximately 1 g, was suspended into 10 mL of ice-chilled […] sucrose pH 7.4 20% w/v accordingly and homogenized for 10 min using Daihan homogenizer HG-15A. Brain homogenate was transferred into a centrifuge tube and centrifuged at a speed of 7500× g rpm for 15 min at 4 °C by a Scan Speed 1730R Microcentrifuge from Labo Gene, Marlborough, MA, USA. The supernatant was preserved, and the solid brain mass debris present on the bottom was discarded. The supernatant was then diluted with ice-chilled distilled PBS as per need and centrifuged over 12,000× g rpm for 20 min at 4 °C through the mentioned microcentrifuge. Then, pellets containing a white solid mass at the bottom (synaptosomes containing the MAO enzyme) were stored, and each pallet was diluted with PBS buffer. Aliquoting of synaptosomes was carried out and stored at −70 °C till the assay was performed.
For the evaluation of the MAO-B inhibition potential of synthesized compounds, the Amplex® Red Monoamine Oxidase Assay kit was purchased from Invitrogen Molecular Probes, Thermo Fisher Scientific, Waltham, MA, USA. This is a one-step fluorometric bioassay that principally detects the resorufin (7-Hydroxy-3H-phenoxazin-3-one), which is a fluorescent moiety formed in the presence of Horseradish Peroxidase (HRP) by the oxidation of nonfluorescent compound Amplex Red (AMR), chemically known as 10-acetyl-3,7-dihydroxyphenoxazine. The hydrogen peroxide (H2O2) was synthesized during the conversion of substrate to its aldehyde product by MAO enzyme action. […] The assay was performed according to the instruction of the manufacturer (http://tools.thermofisher.com/content/sfs/manuals/mp12214.pdf; accessed on 20 October 2020), with a few modifications. The Amplex Red reagent kit was used as compared to other H2O2 detection probes because of its stability and the stability of resorufin, which is a reaction product along with the longer wavelength spectra. Extracted MAO-B enzyme from rat brain was diluted in sodium phosphate buffer of pH 7.4, 0.25 M. The substrate for MAO-B was benzylamine. Pargyline was used as a standard. All the stock solutions of inhibitors were prepared in dimethyl sulfoxide (DMSO) 100%. Different dilutions of inhibitors were prepared in reaction buffer to obtain less than 2% (v/v) DMSO for evading false positive results. The final reaction volume contained a two-fold lower concentration of enzyme and the inhibitors. […] H2O2 working solution was diluted in the reaction buffer to prepare a final concentration of 10 µM H2O2 and used as positive control, and the reaction buffer with no H2O2 was the negative control. The reaction was started by adding 100 µL of working solution in each well of a black, opaque, 96-well microplate holding the controls and samples. A total of 50 µL of the MAO enzyme solution was added into each well. The composition of the working solution was 400 µM Amplex Red reagent, reaction buffer, 2 U/mL HRP, and 2 mM substrate solution. The possible interference that can be produced by the fluorescence of the compounds generated within the reaction mixture because of non enzymatic inhibition was eradicated by the addition of samples with Amplex Red only in the reaction buffer. The fluorescence of the blank (control with no enzyme) was subtracted to correct the background fluorescence. All the reactions were incubated at 37 °C for 30 min. […]

[2] = MAO-B extracted from rat brain, substrate benzylamine, mean of three independent measurements, read-out: MAO-B (IC50 ± SD)

Chain of AChE from electric eel (O42275 24-633): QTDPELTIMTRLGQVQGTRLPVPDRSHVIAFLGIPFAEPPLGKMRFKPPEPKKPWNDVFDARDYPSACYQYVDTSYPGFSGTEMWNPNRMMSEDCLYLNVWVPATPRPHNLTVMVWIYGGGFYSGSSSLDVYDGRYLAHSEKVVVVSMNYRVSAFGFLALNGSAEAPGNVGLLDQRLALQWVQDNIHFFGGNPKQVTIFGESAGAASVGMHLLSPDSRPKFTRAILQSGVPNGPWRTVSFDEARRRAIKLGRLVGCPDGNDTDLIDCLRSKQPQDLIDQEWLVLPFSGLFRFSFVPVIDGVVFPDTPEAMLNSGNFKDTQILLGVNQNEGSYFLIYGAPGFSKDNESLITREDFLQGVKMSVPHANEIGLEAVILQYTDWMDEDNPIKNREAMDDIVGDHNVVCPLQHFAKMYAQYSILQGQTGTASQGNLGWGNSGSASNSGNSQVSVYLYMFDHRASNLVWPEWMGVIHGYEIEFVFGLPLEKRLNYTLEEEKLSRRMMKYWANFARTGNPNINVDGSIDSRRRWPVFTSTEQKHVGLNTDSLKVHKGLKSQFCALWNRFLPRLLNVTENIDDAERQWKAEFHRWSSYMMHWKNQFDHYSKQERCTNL

Q: For `O=C(CNCCc1c[nH]c2ccccc12)c1ccc(F)cc1F` [SR13], which IC50 (AChE from electric eel) is on record?
A: 9.68 ± 0.16 µM

Q: What about the inhibition at 100 µM (Human recombinant COX-2) of the same compound?
A: 73.8 ± 2.37%

Q: And the IC50 [1, 2]?
A: 50.6 ± 0.64 µM

Q: How did the IC50 (AChE from electric eel) turn out when `O=C(CNCCc1c[nH]c2ccccc12)c1ccc(-c2ccccc2)cc1` [SR24] was run?
A: 6.7 ± 0.08 µM

Q: What about the inhibition at 100 µM (Human recombinant COX-2) of the same compound?
A: 79.3 ± 2.02%

Q: And the IC50 [1]?
A: 133.2 ± 0.46 µM

Q: With `O=C(CNCCc1c[nH]c2ccccc12)c1ccc2ccccc2c1` [SR08] as the compound, how does the IC50 (AChE from electric eel) read?
A: 4.36 ± 0.12 µM

Q: And the inhibition at 100 µM (Human recombinant COX-2)?
A: 72.3 ± 1.67%

Q: What about the IC50 [1, 2] of the same compound?
A: 244.2 ± 1 µM

Q: Which IC50 (AChE from electric eel) does the source give for `O=C(CNCCc1c[nH]c2ccccc12)c1cccc([N+](=O)[O-])c1` [SR22] here?
A: 54.88 ± 0.19 µM

Q: What about the inhibition at 100 µM (Human recombinant COX-2) of the same compound?
A: 84.1 ± 4.53%

Q: What about the IC50 [1, 2] of the same compound?
A: 56.46 ± 0.41 µM

Q: Which IC50 (AChE from electric eel) does the source give for `O=C(CCNCCc1c[nH]c2ccccc12)c1ccccc1` [SR25] here?
A: 0.17 ± 0.02 µM

Q: And the inhibition at 100 µM (Human recombinant COX-2)?
A: > 70%

Q: And the IC50 [1]?
A: 85.1 ± 0.26 µM

Q: Which IC50 (AChE from electric eel) does the source give for `O=C(NCCc1c[nH]c2ccccc12)c1cc([N+](=O)[O-])cc([N+](=O)[O-])c1` [SR42] here?
A: 0.7 ± 0.21 µM

Q: What about the inhibition at 100 µM (Human recombinant COX-2) of the same compound?
A: > 70%

Q: What about the IC50 [1, 2] of the same compound?
A: 43.2 ± 0.46 µM

Q: For `O=C(CNCCc1c[nH]c2ccccc12)c1ccc([N+](=O)[O-])cc1` [SR23], which IC50 (AChE from electric eel) is on record?
A: 7.33 ± 0.12 µM

Q: And the “COX-2 (%Inhibition ± SD)” value (Human recombinant COX-2; 100 µM)?
A: 71.40 ± 3.11%

Q: And the inhibition at 100 µM (Human recombinant COX-2)?
A: 69.4 ± 3.11%

Q: What about the IC50 [1, 2] of the same compound?
A: 95.1 ± 0.43 µM

Q: Which IC50 (AChE from electric eel) does the source give for `O=C(CNCCc1c[nH]c2ccccc12)c1ccc(O)c(O)c1` [SR20] here?
A: 24.97 ± 0.05 µM

Q: What about the inhibition at 100 µM (Human recombinant COX-2) of the same compound?
A: 68.7 ± 3.86%

Q: What about the IC50 [1, 2] of the same compound?
A: 222.1 ± 0.32 µM

Q: How did the IC50 (AChE from electric eel) turn out when `O=C(CNCCc1c[nH]c2ccccc12)c1ccccc1[N+](=O)[O-]` [SR21] was run?
A: 87.73 ± 0.16 µM

Q: What about the inhibition at 100 µM (Human recombinant COX-2) of the same compound?
A: 34.4 ± 3.34%

Q: And the IC50 [1, 2]?
A: 142.1 ± 0.32 µM

Q: `O=C(CNCCc1c[nH]c2ccccc12)c1ccc(F)cc1` [SR10] was tested. Which IC50 (AChE from electric eel) did it give?
A: 1 ± 0.08 µM

Q: And the inhibition at 100 µM (Human recombinant COX-2)?
A: > 70%

Q: And the IC50 [1, 2]?
A: 216.1 ± 0.29 µM

Q: How did the IC50 [1, 2] turn out when `C#CCN(C)Cc1ccccc1` [Pargyline, reference compound] was run?
A: 23.4 ± 0.32 µM

Q: What does the source list for `Cc1ccc(C(=O)CNCCc2c[nH]c3ccccc23)cc1` [SR14]?
A: IC50 (AChE from electric eel): 68.71 ± 0.24 µM; inhibition at 100 µM (Human recombinant COX-2): 65.3 ± 2.65%; IC50 [1, 2]: 112.2 ± 0.29 µM

Q: Which results are given for `NCCc1c[nH]c2ccccc12` [Tryptamine]?
A: IC50 (AChE from electric eel): 88.26 ± 0.24 µM; inhibition at 100 µM (Human recombinant COX-2): 57.3 ± 4.96%; IC50 [1, 2]: 288.1 ± 0.32 µM

Q: How did the IC50 (AChE from electric eel) turn out when `COc1ccc(C(=O)CNCCc2c[nH]c3ccccc23)cc1` [SR17] was run?
A: 8.23 ± 0.12 µM

Q: And the inhibition at 100 µM (Human recombinant COX-2)?
A: 72.8 ± 2.54%

Q: And the IC50 [1, 2]?
A: 150.1 ± 0.26 µM
